Measurements: PubChem BioAssay AID1963844 (Molecular Pharmacology Branch, DTP, NCI, 2024)
pIC50: −log10 of the molar value. Values joined by “and” are separate entries in the source; they are usually repeats but may differ in a detail not shown here. Equal entries are not always repeated.

Test system: 422866-222-R5-J1-PDC complex spheroid viability
Assay: Anticancer human tumor 422866-222-R5-J1-PDC patient-derived pancreatic adenocarcinoma cell line growth inhibition [POLQ]
Conditions: for viability, T/C: stronger effect = lower value
Experimental: Multicellular complex tumor spheroid response to Polymerase (POL) inhibitors (novobiocin, ART-558, RP6685) in combination with a variety of drugs and investigational agents in selected tumor cell lines
The POL inhibitors (novobiocin, ART-558, and RP6685) were evaluated both individually and in combination with standard of care and investigational anticancer small molecules within a complex spheroid model of solid tumors. . Complex spheroids include a stromal component modeled by human endothelial cells (HUVEC) and fibroblasts modeled by human mesenchymal stem cells (MSCs). The concentration ranges selected for each drug and investigational agent were based upon clinically achievable concentrations if the clinical Cmax of the agent was known.
Compounds. The drugs and investigational agents: novobiocin (NSC847541), ART-558 (NSC835418), RP-6685 (NSC848927), peposertib (NSC802822), ceralasertib (NSC780249), elimusertib (NSC800525), camonsertib (NSC841442), AZD-1390 (NSC803789), olaparib (NSC753686), talazoparib (NSC767125), rucaparib (NSC756644), sotorasib (NSC818433), MRTX-1133 (NSC836407), SN-38 (NSC673596), topotecan (NSC609699), epotoside (NSC141540), doxorubicin (NSC123127), gemcitabine (NSC613327), 5-fluorouracil (NSC19893), paclitaxel (NSC125973), vemurafenib (NSC761431), MSA-2 (NSC828583), SN-011 (NSC837082), adavosertib (NSC754352), prexasertib (NSC758257), carboplatin (NSC241240) and oxaliplatin (NSC266046), were obtained from the National Cancer Institute (NCI) Developmental Therapeutics Program Chemical Repository (21). The FDA-approved anticancer drug set is available from the Developmental Therapeutics Program at https://dtp.cancer.gov/organization/dscb/obtaining/. […] The stock solutions were prepared in dimethyl sulfoxide (DMSO, Sigma-Aldrich, St. Louis, MO, cat. D2650), except for the platinum compounds which were prepared in saline (Quality Biological, Gaithersburg, MD, cat. 114-055-101), at 800-fold the tested concentration and stored at -70 degrees C prior to their use. All drugs and investigational agents were tested over a range starting from a high concentration at or near the clinical Cmax and decreasing in half-log increments. If the clinical Cmax for an agent had not been determined, the highest concentration tested was 10 microM, except for SN-38, which was tested at a high concentration of 1 microM.
Cell Culture. All cells were maintained in an incubator at 37 degrees C and 5% CO2 with 95% humidity. The PDC lines were cultured according to standard operating procedures established by the NCI PDMR (https://pdmr.cancer.gov). Table 3 of the manuscript, lists the cell lines along with the number of the three cell types plated to form the mct-spheroids and media for tumor cell growth. After thawing, all PDC lines, except 997537-175-T-J1-PDC and 415267-285-R-J2-PDC, were cultured in Matrigel-coated flasks prepared with a working solution of 1X Ham's F-12 nutrient mix, without supplementation (Thermo Fisher Scientific, cat. 11765054), 100 U/mL penicillin-streptomycin (Thermo Fisher Scientific, cat. 15140122), and 2.5% Matrigel (Corning Inc., Corning, NY, cat. 354248) for the first three passages. The two PDC lines 997537-175-T-J1-PDC and 415267-285-R-J2-PDC were cultured on uncoated flasks. The 857933-349-R-J2-PDC line was cultured in 6C/Colon 1B media containing advanced DMEM/F-12 (Thermo Fisher Scientific, cat. 12634028), 10 mM HEPES (Thermo Fisher Scientific, cat. 15630080), 1X GlutaMAX supplement (Thermo Fisher Scientific, cat. 35050061), 0.1 mg/mL primocin (InvivoGen, San Diego, CA, cat. ant-pm-2), 10% defined fetal bovine serum, heat inactivated (HyClone Laboratories Inc., Logan, UT, cat. SH30070.03HI), 50% L-WRN conditioned media (ATCC, cat. CRL-3276), 1.25 mM N-Acetyl-L-cysteine (Sigma-Aldrich, cat. A9165), 10 mM nicotinamide (Sigma-Aldrich, cat. N0636), 1X B-27 supplement (Thermo Fisher Scientific, cat. 17504044), 1X N-2 supplement (Thermo Fisher Scientific, cat. […]

[1] = compound alone, run of 12/05/2023
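Note: spheroids exposed to compounds for one week before readout.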
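Throughout, for viability, T/C: percent of DMSO vehicle wells luminescence so 100% = untreated viability.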

| Compound | viability, T/C (compound 0.0316 µM) | viability, T/C (compound 0.1 µM) | viability, T/C (compound 0.316 µM) | viability, T/C (compound 1 µM) | viability, T/C (compound 3.16 µM) | viability, T/C (compound 10 µM) | pIC50 (curve of compound) | viability, T/C (compound 0.00316 µM) | viability, T/C (compound 0.01 µM) | pIC50 (compound alone, run of 11/27/2023) | pIC50 [1] | viability, T/C (compound 0.000316 µM) | viability, T/C (compound 0.001 µM) |
| --- | --- | --- | --- | --- | --- | --- | --- | --- | --- | --- | --- | --- | --- |
| CCc1cc2c(N3CCc4c(cc(Cn5ccnc5)cc4-c4cn(C)nc4C(F)(F)F)C3=O)ccnc2c(OC)n1 | 93.7% and 75.7% and 82.9% | 81% and 78.8% and 84.5% | 89.8% and 81.5% and 92.5% | 117% and 113% and 99.8% | 129% and 108% and 106% | 108% and 87.1% and 92.4% | < 5.00 | – | – | – | – | – | – |
| CNCc1ccc(-c2[nH]c3cc(F)cc4c3c2CCNC4=O)cc1 | 88% and 95% and 99.8% | 89.3% and 83.7% and 99.7% | – | 90.7% and 102% and 101% | 77.7% and 90.4% and 86.5% | 94.5% and 76.6% and 86.3% | < 5.00 | – | – | – | – | – | – |
| COc1cc(C2c3cc4c(cc3C(OC3OC5COC(C)OC5C(O)C3O)C3COC(=O)C23)OCO4)cc(OC)c1O (stereo not drawn) | 90.2% and 97.7% and 97.4% | 95% and 86.7% and 97.1% | 79.5% and 59.3% and 73.2% | 54.9% and 45.2% and 52.5% | 37% and 39.4% and 37.1% | 33.3% and 33.2% and 28.4% | 5.87 and 6.18 and 5.94 | – | – | – | – | – | – |
| COc1cc2cc(C(=O)CCC(=O)O)sc2cc1OC | 106% and 85.3% and 94.7% | 99.5% and 89.1% and 83% | 107% and 91% and 88% | – | 98.6% and 97.3% and 98% | – | < 5.00 | – | – | – | – | – | – |
| COc1ccc([C@@H](O)c2cc(-c3ncnc4cc(N5CCOCC5)ccc34)c(F)cc2Cl)nn1 | 80.3% and 87.1% and 99.6% | 84.6% and 77% and 79.5% | 76.6% and 85.4% and 75.6% | 62.4% and 59% and 67.8% | 43.3% and 51.7% and 45.8% | 35.5% and 35.1% and 37.1% | 5.68 and 5.55 and 5.52 | – | – | – | – | – | – |
| COc1cccc(OCCCN)c1-c1cc(Nc2cnc(C#N)cn2)n[nH]1 | 38.3% and 35% and 28.3% | 38.7% and 31.6% and 31.1% | 34% and 37.7% and 24.6% | 35.8% and 33.7% and 48.9% | – | – | 8.25 and 8.12 and 8.15 | 61.5% and 71.1% and 79.5% | 37.6% and 43.8% and 38% | – | – | – | – |
| COc1cccc2c1C(=O)c1c(O)c3c(c(O)c1C2=O)CC(O)(C(=O)CO)CC3OC1CC(N)C(O)C(C)O1 (stereo not drawn) | 70.1% and 56.7% and 69% | – | 36.8% and 26.5% and 35.3% | 34.3% and 23.3% and 26.8% | 30.2% and 28.3% and 28.6% | 33.7% and 25.8% and 38.8% | 6.97 and 7.16 and 6.66 | – | – | – | – | – | – |
| Cc1cccc(N(C)C(=O)C2C(O)CCN2c2nc(C)cc(C(F)(F)F)c2C#N)c1 (stereo not drawn) | – | 93.7% [middle of 13 runs] | 94.8% [middle of 13 runs] | – | – | 99.8% [middle of 13 runs] | – | – | – | < 5.00 | < 5.00 | – | – |
| Cn1ncnc1[C@H]1c2n[nH]c(=O)c3cc(F)cc(c23)N[C@@H]1c1ccc(F)cc1 | 96.2% and 89.7% and 91.1% | 82.2% and 98.5% and 82.5% | – | – | – | – | < 7.00 | 95.8% and 100% and 84.7% | 102% and 89.2% and 106% | – | – | 105% and 98.6% and 90.6% | 94.4% and 84.4% and 82.5% |
| Nc1ccc(C#CCN(C(=O)Cc2ncc(C(F)(F)F)cc2C(F)(F)F)c2ccc(F)cc2)nn1 | 93.7% [middle of 13 runs] | 97.3% [middle of 13 runs] | – | 97.2% [middle of 13 runs] | 105% [middle of 13 runs] | 114% [middle of 13 runs] | – | – | – | – | < 5.00 | – | – |
| Nc1ccn(C2OC(CO)C(O)C2(F)F)c(=O)n1 (stereo not drawn) | 62.1% and 51.8% and 64.1% | 54.6% and 35.1% and 56.4% | 41% and 37% and 34.6% | 41.4% and 31.6% and 43% | 38.3% and 35.9% and 36.3% | 40.9% and 38.9% and 34.1% | 6.92 and > 7.50 and 6.84 | – | – | – | – | – | – |
| O=C(Nc1ccc(O)c(NS(=O)(=O)c2ccc(F)cc2)c1)c1ccc(-c2ccccc2)cc1 | 110% and 86.1% and 107% | 79.5% and 94.1% and 96.3% | 78.5% and 81.6% and 79.1% | 90.2% and 93.1% and 97.9% | 90% and 107% and 97.1% | 106% and 113% and 128% | < 5.00 | – | – | – | – | – | – |
| O=C(c1cc(Cc2n[nH]c(=O)c3ccccc23)ccc1F)N1CCN(C(=O)C2CC2)CC1 | 98.1% and 101% and 83.2% | 97.3% and 102% and 84.5% | – | 99.5% and 102% and 91.3% | – | – | < 5.00 | – | – | – | – | – | – |
| O=c1[nH]cc(F)c(=O)[nH]1 | 95.8% and 101% and 92% | 103% and 93.5% and 99.9% | 107% and 97.4% and 98.9% | 85% and 101% and 80.7% | 73.7% and 83.7% and 89.8% | 74.5% and 73.4% and 72.8% | < 5.00 | – | – | – | – | – | – |
